Each structure is given as a SMILES string. The source made the active and inactive calls. How the calls were made is not given here.

The target of this assay is Peptidyl-prolyl cis-trans isomerase FKBP1A (Homo sapiens) (UniProt P62942). Description: FKBP12 binders, biophysical, NMR detection (AID 608). The settings on record: NMR binding, purified FKBP12.
Peptidyl-prolyl cis-trans isomerase FKBP1A (Homo sapiens), sequence (P62942 whole entry, looked up): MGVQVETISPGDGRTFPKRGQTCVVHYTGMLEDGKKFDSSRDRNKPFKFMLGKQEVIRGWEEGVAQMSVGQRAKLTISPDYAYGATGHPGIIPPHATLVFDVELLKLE
For `COC(=O)/C(C)=C\CC12OC(C)(C)C3CC(C=C4C(=O)c5c(OC)c6c(c(CC=C(C)C)c5OC431)OC(C)(CCC=C(C)C)C=C6)C2=O` (stereo unspecified), the Kd (usually the constant that tells how readily two partners part at equilibrium) is > 4 mM (inactive).
The value for `CC(=O)Oc1c(C)c(C)c2c(c1C)CCC(C)(CCCC(C)CCCC(C)CCCC(C)C)O2` (stereo unspecified) was > 4 mM (inactive); that for `Cc1cc(NC(=O)Cc2c(F)cccc2Cl)no1` was > 4 mM (inactive); that for `Cc1cc(=O)n2ncn(Cc3ccccc3)c2n1` was > 4 mM (inactive).
The value for `COc1cc(OC)c2c(=O)c(OC)c(-c3ccc(OC)c(OC)c3)oc2c1` was > 4 mM (inactive); that for `CCC(C)C(=O)OC1[C@@H]2CC3=C4CC(=O)O[C@@H](c5ccoc5)[C@]4(C)CCC3C(C)(C2=O)[C@@H](CC(=O)OC)C1(C)C` (stereo partly specified) was > 4 mM (inactive).
The figure for `COc1cccc(S(=O)(=O)Nc2cccnc2)c1` is > 4 mM (inactive); for `NS(=O)(=O)c1ccc(NC(=O)/C=C\C(=O)O)cc1` it is > 4 mM (inactive).
For `O=C1Nc2ccc(S(=O)(=O)NCCO)c3cccc1c23`, the Kd is > 4 mM (inactive).
The figure for `CCOC(=O)c1cc(C)n(C)n1` is > 4 mM (inactive); for `Cn1c(=O)c2c([nH]c(=O)n2C)n(C)c1=O` it is > 4 mM (inactive); for `CN(Cc1nc2ccccc2n1C)S(C)(=O)=O` it is > 4 mM (inactive).
Regarding `COc1cc2cc3c4cc(OC)c(OC)cc4cc[n+]3c(C)c2cc1OC`, the Kd was > 4 mM (inactive).
Turning to `Cc1cc(=O)n2[nH]c(COc3ccccc3)nc2n1`, the Kd is > 4 mM (inactive).
On to `CC1(O)CC2C(CC1O)C2(C)C` (stereo unspecified), for which the Kd is > 4 mM (inactive).
For `COc1cccc(NC(=O)c2cnn(C)c2Cl)c1`, the Kd was > 4 mM (inactive).
Regarding `COc1ccccc1NC(C)=O`, the Kd was > 4 mM (inactive).
With `NC(N)=Nc1nc2ccccc2o1`, the Kd is > 4 mM (inactive).
The figure for `CC(=O)Nc1ccc(Oc2nc(C)cc(C)n2)cc1` is > 4 mM (inactive); for `COc1ccc2c3c1O[C@H]1C[C@@H](O)C=C[C@@]31CCN(C)C2` it is > 4 mM (inactive); for `OC[C@H]1O[C@@H](Oc2ccc(O)cc2)[C@H](O)[C@@H](O)[C@@H]1O` it is > 4 mM (inactive).
On to `O=C(Oc1ccc2c(c1)OCC2=O)c1ccccc1`, for which the Kd is > 4 mM (inactive).
The value for `Cc1c(-c2ccc(F)cc2)[n+](=O)c2c(n1[O-])CCC2` was > 4 mM (inactive); that for `Cc1c(/C=N\n2cnnc2)c2ccccc2n1C` was > 4 mM (inactive); that for `CC(O)C(=O)N/N=C/c1cccs1` (stereo unspecified) was > 4 mM (inactive).
As to `Cn1c(=O)c2[nH]cnc2n(-c2ccccc2)c1=O`, the Kd was > 4 mM (inactive).
In the case of `CC(=O)c1c(C)nc(-c2cccs2)n1O`, the Kd was > 4 mM (inactive).
The value for `CCCNC(=O)c1cnc2n(c1=O)CCS2` was > 4 mM (inactive); that for `COC(=O)/C(=C1\OC(=O)C(c2ccccc2)C1=O)c1ccccc1` (stereo unspecified) was > 4 mM (inactive); that for `C[C@H]1OC(O[C@H]2[C@@H](O)CC(O[C@H]3[C@@H](O)C[C@H](O[C@H]4CC[C@]5(C)C6CC[C@]7(C)[C@@H](C8=CC(=O)OC8)[C@@H](O)C[C@]7(O)[C@@H]6CC[C@@H]5C4)O[C@@H]3C)O[C@@H]2C)C[C@H](O)C1O` (stereo partly specified) was > 4 mM (inactive).
The figure for `CC(=O)NC12CC3CC(CC(O)(C3)C1)C2` is > 4 mM (inactive); for `CCOC(=O)c1c(SC)nc(=O)[nH]c1C` it is > 4 mM (inactive).
The value for `Nc1cccc(OCC(=O)N2CCOCC2)c1` was > 4 mM (inactive); that for `Cc1cc(=O)cc(C)n1NC(N)=S` was > 4 mM (inactive); that for `O=C(NN1C(=O)C2C3C=CC(C3)C2C1=O)C1CC=CCC1` (stereo unspecified) was > 4 mM (inactive).
With `O=C(Nc1ccc(N2CCOCC2)cc1)c1cnsn1`, the Kd was > 4 mM (inactive).
The figure for `NC(=O)c1c(Cl)nsc1-c1ccccc1Cl` is > 4 mM (inactive); for `c1cnc(N2CCSCC2)nc1` it is > 4 mM (inactive); for `CCCS(=O)(=O)N1CCN(c2ccccc2F)CC1` it is > 4 mM (inactive).
With `CCc1ccccc1NC(=O)c1cnccn1`, the Kd is > 4 mM (inactive).
Turning to `CC(CCC(=O)O)[C@H]1CCC2C3C(C[C@H](O)[C@@]21C)[C@@]1(C)CC[C@@H](O)C[C@H]1C[C@H]3O` (stereo partly specified), the Kd is > 4 mM (inactive).
The value for `CCC(=O)OC1[C@@H]2CC3=C4CC(=O)O[C@@H](c5ccoc5)[C@]4(C)CCC3C(C)(C2=O)[C@@H](CC(=O)OC)C1(C)C` (stereo partly specified) was > 4 mM (inactive).
With `NCc1ccc(S(N)(=O)=O)cc1`, the Kd was > 4 mM (inactive).
The value for `O=S(=O)(N1CCOCC1)n1c(Cc2ccccc2)nc2ccccc21` was “inactive”.
Turning to `Fc1ccc(-c2n[nH]c(=S)n2CC2CCCO2)cc1` (stereo unspecified), the Kd is > 4 mM (inactive).
The figure for `Cc1c(C(=O)Nc2ccccn2)oc2ccccc12` is > 4 mM (inactive); for `OCc1ccc(CN2CCOCC2)cc1` it is > 4 mM (inactive); for `Nc1cccnc1Oc1ccc(F)cc1F` it is > 4 mM (inactive).
As to `O/N=C1/CCCc2nonc21`, the Kd was > 4 mM (inactive).
The value for `CC(=O)NCS(=O)(=O)c1ccc(C)cc1` was > 4 mM (inactive); that for `CC(=O)c1cc2c(cc1O)OC(C)(C)C=C2` was > 4 mM (inactive); that for `O=C1CSC(=O)N1CN1CCCC1` was > 4 mM (inactive).
The figure for `CC(C)CCCC1(C)C=Cc2c(O)c3c(c(CCC(C)C)c2O1)OC12C(CC4CC1C(C)(C)OC2(CCC(C)C(=O)O)C4O)C3=O` (stereo unspecified) is > 4 mM (inactive).
The value for `COc1cc(OC)c2ccc(=O)oc2c1` was > 4 mM (inactive); that for `Cc1nc2ccc(NC(=O)N3CCSCC3)cc2s1` was > 4 mM (inactive).
Consider `COc1ccc(C(C)=O)c(O)c1`, for which the Kd is > 4 mM (inactive).
The value for `CC(C)=CCCC1(C)C=Cc2c(O)c3c(c(CC=C(C)C)c2O1)OC12C(=CCCC1C(C)(C)O[C@@]2(C/C=C(\C)C(=O)O)C(=O)O)C3=O` (stereo partly specified) was > 4 mM (inactive); that for `O=C(O)/C=C/C(=O)Nc1ccccc1C(F)(F)F` was > 4 mM (inactive).
For the compound `O=C(O)C1=CCCNC1`, the Kd was > 4 mM (inactive).
For `O=C(CN1C(=O)c2cccc3cccc(c23)C1=O)NO`, the Kd is > 4 mM (inactive).
The figure for `O=C1CN2C(=N1)N(Cc1ccccc1)c1ccccc12` is > 4 mM (inactive); for `O=C(O)CCCCCCCC(=O)O` it is > 4 mM (inactive).
With `Nc1ccc(CCC(=O)O)cc1`, the Kd was > 4 mM (inactive).
The value for `O=c1nc(NCc2ccco2)sc2ncccc12` was > 4 mM (inactive).
The figure for `Cc1c(C)c2c(c(C)c1O)CCC(C)(CCCC(C)CCCC(C)CCCC(C)C)O2` (stereo unspecified) is > 4 mM (inactive); for `Cc1cc(NC(=O)c2ocnc2C)no1` it is > 4 mM (inactive); for `c1csc(-c2nn[nH]n2)c1` it is > 4 mM (inactive).
The figure for `Cc1nnc(SCc2cccs2)[nH]c1=O` is > 4 mM (inactive).
For `O=C(O[C@@H]1Cc2c(O)cc(O)cc2O[C@@H]1c1cc(=O)c(O)c2c(O)c(O)cc([C@H]3Oc4cc(O)cc(O)c4C[C@H]3O)c2c1)c1cc(O)c(O)c(O)c1`, the Kd is > 4 mM (inactive).
The value for `NC(=O)CN1CC(=O)NC(=O)C1` was > 4 mM (inactive).
The value for `COc1c(C(C)C)oc2cc3oc(=O)ccc3cc12` was > 4 mM (inactive); that for `Cc1cc2ncc(C(=O)Nc3ccccc3)c(C)n2n1` was “inactive”.
As for `NCc1c[nH]c2ccccc12`, the Kd is > 4 mM (inactive).
The value for `COc1c2c(cc3c1OCO3)C13C=C[C@H](OC)CC1N(C2)CC3O` (stereo partly specified) was > 4 mM (inactive); that for `Cn1cnc([N+](=O)[O-])c1Sc1ncnc2nc[nH]c12` was > 4 mM (inactive).
The value for `COc1cc(-c2coc3cc(OCc4ccccc4)c(OC)c(O)c3c2=O)cc(O)c1OC` was > 4 mM (inactive); that for `CN1CCN(c2nc3c(c(=O)[nH]2)CCCC3)CC1` was > 4 mM (inactive); that for `CCCNC(=O)CSc1ncccc1C(=O)O` was > 4 mM (inactive).
Turning to `CC(=O)O[C@H]1CC[C@@]2(C)C(CC[C@]3(C)C2CC=C2C4CC(C)(C)CC[C@]4(C)CC[C@]23C)C1(C)C` (stereo partly specified), the Kd was > 4 mM (inactive).
The value for `NCc1ccc2occc2c1` was > 4 mM (inactive); that for `COc1ccccc1-c1c(C)nn2c(C)c(C(C)=O)cnc12` was > 4 mM (inactive); that for `NC(=O)c1cccc2c(=O)oc3ccccc3c12` was > 4 mM (inactive).
The value for `COc1cc([C@@H]2c3cc4c(cc3[C@H](O)[C@H]3COC(=O)[C@H]23)OCO4)cc(OC)c1OC` was > 4 mM (inactive); that for `O=C(Oc1ccc(-c2nnco2)cc1)N1CCCCC1` was > 4 mM (inactive).
The figure for `CC(C)=NNC(=O)C(=O)NC(C)(C)C` is > 4 mM (inactive); for `O=C(Nc1ccon1)c1sc2cc(F)ccc2c1Cl` it is > 4 mM (inactive).
As to `CC(=O)Nc1ccc(NC(C)=O)c(C(F)(F)F)c1`, the Kd is > 4 mM (inactive).
Take `CCn1nnc2c(NCc3ccccn3)ncnc21`: the Kd is > 4 mM (inactive).
For the compound `CC1(C)SCC(C(=O)O)N1C=O` (stereo unspecified), the Kd was > 4 mM (inactive).
Consider `CS(=O)(=O)CCCCN=C=S`, for which the Kd is > 4 mM (inactive).
For the compound `CC(=O)Oc1cccc2ccc(=O)[nH]c12`, the Kd is > 4 mM (inactive).
The figure for `Nc1ccc2c(c1)C(=O)OC2` is > 4 mM (inactive).
The figure for `CC1(C)Cc2nc3[nH]c(=S)[nH]c(=O)c3cc2CO1` is > 4 mM (inactive).
The value for `O=C(O)CCN1CCc2ccccc2C1c1ccncc1` (stereo unspecified) was > 4 mM (inactive).
With `O=C(c1sc2cc(F)ccc2c1Cl)N1CCOCC1`, the Kd result was “inactive”.
The figure for `O=C(c1ccc2c(c1)OCO2)N1CCC2(CC1)OCCO2` is > 4 mM (inactive).

Source of the values: PubChem BioAssay AID608 (Sanford-Burnham Center for Chemical Genomics, 2007).
